Assay results taken from ChEMBL document CHEMBL5291721, “A preclinical secondary pharmacology resource illuminates target-adverse drug reaction associations of marketed drugs” (Nat Commun, 2023).

Key:
[1] = target: T1, 5-hydroxytryptamine receptor 3A (Homo sapiens, UniProt P46098); format: functional
T1 sequence (P46098 whole entry): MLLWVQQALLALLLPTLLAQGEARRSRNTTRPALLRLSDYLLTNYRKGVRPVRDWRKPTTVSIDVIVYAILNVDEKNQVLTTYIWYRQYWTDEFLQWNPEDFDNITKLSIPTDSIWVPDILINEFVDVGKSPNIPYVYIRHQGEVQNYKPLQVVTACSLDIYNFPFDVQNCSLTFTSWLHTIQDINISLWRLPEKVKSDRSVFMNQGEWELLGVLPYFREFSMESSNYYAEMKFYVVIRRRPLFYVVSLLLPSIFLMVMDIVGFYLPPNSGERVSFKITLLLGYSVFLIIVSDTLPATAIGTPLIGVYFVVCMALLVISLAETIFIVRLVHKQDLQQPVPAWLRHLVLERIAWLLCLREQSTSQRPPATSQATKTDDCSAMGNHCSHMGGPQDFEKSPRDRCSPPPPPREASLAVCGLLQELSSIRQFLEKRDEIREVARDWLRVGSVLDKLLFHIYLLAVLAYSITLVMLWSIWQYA

Cannabinoid receptor 1 = Cannabinoid receptor 1 (Homo sapiens, UniProt P21554); format: functional, cell-based
Sequence of Cannabinoid receptor 1 (P21554 whole entry): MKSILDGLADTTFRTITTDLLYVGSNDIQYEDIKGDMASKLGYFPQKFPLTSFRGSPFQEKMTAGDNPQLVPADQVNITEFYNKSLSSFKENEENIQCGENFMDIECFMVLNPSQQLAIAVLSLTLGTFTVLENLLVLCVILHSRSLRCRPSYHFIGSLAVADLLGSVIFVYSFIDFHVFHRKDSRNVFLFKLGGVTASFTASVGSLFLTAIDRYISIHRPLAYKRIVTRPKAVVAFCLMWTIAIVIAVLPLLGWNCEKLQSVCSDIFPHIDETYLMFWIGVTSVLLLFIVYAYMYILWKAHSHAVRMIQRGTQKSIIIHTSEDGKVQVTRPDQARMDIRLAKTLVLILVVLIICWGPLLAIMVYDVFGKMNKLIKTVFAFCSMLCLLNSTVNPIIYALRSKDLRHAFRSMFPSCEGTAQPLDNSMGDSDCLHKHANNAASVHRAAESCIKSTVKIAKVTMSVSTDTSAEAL

[2] = target: Sodium-dependent noradrenaline transporter (Homo sapiens, UniProt P23975)
Endothelin-1 receptor = target: T2, Endothelin-1 receptor (Homo sapiens, UniProt P25101)
T2 sequence (P25101 whole entry): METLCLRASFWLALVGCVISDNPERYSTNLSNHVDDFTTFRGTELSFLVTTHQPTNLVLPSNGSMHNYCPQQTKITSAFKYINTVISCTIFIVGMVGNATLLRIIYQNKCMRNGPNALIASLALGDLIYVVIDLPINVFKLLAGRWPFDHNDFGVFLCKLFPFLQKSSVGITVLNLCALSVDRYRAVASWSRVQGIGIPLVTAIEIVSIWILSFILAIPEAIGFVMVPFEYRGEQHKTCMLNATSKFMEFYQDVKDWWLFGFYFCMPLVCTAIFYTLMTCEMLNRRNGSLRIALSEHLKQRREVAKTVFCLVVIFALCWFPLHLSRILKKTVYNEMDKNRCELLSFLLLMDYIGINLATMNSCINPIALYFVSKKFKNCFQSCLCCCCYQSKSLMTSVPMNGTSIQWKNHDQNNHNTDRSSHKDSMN

[3] = target: 5-hydroxytryptamine receptor 2A (Homo sapiens, UniProt P28223); format: functional, cell-based
Sequence of 5-hydroxytryptamine receptor 2A (P28223 whole entry): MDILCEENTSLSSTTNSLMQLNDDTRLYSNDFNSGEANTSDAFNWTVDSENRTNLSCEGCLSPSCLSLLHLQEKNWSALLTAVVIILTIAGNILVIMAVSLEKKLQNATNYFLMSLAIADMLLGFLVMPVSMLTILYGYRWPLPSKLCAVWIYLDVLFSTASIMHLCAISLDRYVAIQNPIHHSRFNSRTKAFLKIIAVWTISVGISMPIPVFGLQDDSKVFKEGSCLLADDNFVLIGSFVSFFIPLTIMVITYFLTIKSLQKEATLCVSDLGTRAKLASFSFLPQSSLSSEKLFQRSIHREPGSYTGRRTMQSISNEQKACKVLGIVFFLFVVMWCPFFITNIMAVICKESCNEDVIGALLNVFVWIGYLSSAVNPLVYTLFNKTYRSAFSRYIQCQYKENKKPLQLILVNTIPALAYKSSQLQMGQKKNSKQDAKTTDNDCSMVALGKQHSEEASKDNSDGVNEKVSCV

Estrogen receptor = target: T3, Estrogen receptor (Homo sapiens, UniProt P03372)
T3 sequence (P03372 whole entry): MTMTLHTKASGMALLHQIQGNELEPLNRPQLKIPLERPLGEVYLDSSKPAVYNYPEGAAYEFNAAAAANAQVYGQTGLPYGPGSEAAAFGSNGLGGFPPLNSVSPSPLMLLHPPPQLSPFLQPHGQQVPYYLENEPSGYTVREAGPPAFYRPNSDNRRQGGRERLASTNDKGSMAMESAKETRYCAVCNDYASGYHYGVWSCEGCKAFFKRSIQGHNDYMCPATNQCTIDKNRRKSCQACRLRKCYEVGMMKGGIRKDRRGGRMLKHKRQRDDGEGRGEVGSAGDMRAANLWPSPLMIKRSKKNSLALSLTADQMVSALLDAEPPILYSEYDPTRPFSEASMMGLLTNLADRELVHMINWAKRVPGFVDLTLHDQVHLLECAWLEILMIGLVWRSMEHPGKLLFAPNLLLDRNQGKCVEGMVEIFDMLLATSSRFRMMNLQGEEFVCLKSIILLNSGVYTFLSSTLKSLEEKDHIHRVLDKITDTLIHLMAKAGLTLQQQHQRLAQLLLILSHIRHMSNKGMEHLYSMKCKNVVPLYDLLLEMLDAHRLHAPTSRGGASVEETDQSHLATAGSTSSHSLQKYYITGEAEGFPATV

D(3) dopamine receptor = D(3) dopamine receptor (Homo sapiens, UniProt P35462)
Sequence of D(3) dopamine receptor (P35462 whole entry): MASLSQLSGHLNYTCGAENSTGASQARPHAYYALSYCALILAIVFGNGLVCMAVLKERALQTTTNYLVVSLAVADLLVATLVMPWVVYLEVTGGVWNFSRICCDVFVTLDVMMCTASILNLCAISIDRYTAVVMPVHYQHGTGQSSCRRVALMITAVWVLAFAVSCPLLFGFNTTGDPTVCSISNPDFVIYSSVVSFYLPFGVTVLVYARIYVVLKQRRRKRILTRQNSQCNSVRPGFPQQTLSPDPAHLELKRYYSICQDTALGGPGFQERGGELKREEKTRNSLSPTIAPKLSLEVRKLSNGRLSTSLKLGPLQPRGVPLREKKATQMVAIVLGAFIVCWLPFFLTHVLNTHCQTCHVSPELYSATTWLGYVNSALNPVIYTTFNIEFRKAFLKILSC

[4] = target: Glutamate receptor ionotropic, NMDA 1 (Rattus norvegicus, UniProt P35439)
[5] = target: Beta-2 adrenergic receptor (Homo sapiens, UniProt P07550)
Sequence of Beta-2 adrenergic receptor (P07550 whole entry): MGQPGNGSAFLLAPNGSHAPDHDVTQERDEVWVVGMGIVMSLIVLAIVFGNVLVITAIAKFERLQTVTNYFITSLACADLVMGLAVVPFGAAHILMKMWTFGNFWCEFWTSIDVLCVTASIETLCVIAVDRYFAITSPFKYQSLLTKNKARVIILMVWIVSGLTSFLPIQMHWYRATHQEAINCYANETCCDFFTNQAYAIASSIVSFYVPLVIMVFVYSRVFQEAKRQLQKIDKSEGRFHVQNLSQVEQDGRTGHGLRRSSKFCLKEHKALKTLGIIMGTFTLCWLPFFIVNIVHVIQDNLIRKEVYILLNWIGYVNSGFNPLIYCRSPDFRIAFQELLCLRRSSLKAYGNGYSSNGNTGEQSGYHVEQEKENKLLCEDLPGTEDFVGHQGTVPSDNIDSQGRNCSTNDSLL

Motilin receptor = Motilin receptor (Homo sapiens, UniProt O43193)
Sequence of Motilin receptor (O43193 whole entry): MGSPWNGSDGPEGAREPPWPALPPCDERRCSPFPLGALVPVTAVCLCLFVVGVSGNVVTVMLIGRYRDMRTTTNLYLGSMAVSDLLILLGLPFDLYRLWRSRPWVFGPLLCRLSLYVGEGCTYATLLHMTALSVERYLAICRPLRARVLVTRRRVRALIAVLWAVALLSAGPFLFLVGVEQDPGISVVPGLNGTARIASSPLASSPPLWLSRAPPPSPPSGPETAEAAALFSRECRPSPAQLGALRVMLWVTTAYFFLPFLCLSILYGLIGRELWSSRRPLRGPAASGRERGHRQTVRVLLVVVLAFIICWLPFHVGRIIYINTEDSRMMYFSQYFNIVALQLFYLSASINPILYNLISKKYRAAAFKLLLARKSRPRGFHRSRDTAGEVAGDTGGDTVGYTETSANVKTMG

Progesterone receptor = target: T4, Progesterone receptor (Homo sapiens, UniProt P06401); format: functional
T4 sequence (P06401 whole entry): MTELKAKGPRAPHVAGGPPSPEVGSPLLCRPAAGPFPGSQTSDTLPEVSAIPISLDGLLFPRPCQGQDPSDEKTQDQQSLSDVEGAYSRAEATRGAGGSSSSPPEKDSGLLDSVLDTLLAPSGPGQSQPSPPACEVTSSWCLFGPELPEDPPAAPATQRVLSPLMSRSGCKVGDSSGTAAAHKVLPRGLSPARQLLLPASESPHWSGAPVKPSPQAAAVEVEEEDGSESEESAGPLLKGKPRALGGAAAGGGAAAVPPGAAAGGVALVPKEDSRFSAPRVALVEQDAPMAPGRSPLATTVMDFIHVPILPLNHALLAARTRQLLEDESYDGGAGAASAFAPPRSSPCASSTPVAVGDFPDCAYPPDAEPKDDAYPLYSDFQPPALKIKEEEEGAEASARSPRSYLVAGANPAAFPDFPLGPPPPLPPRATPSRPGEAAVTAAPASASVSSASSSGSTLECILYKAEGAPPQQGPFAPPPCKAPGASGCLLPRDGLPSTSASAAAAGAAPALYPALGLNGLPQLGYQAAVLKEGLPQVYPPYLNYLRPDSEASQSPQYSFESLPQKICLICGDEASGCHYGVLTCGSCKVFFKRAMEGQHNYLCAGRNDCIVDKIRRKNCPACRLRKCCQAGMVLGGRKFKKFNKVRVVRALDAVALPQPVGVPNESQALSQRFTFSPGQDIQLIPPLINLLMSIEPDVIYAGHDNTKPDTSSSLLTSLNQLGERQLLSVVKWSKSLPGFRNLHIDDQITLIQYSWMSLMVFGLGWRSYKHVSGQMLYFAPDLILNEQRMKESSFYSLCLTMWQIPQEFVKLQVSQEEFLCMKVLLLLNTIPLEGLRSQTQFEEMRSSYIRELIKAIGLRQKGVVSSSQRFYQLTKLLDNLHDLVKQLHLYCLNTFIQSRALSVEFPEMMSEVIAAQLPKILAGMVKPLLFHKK

[6] = target: Voltage-dependent L-type calcium channel subunit alpha-1C (Rattus norvegicus, UniProt P22002); format: functional
Sequence of Voltage-dependent L-type calcium channel subunit alpha-1C (P22002 whole entry): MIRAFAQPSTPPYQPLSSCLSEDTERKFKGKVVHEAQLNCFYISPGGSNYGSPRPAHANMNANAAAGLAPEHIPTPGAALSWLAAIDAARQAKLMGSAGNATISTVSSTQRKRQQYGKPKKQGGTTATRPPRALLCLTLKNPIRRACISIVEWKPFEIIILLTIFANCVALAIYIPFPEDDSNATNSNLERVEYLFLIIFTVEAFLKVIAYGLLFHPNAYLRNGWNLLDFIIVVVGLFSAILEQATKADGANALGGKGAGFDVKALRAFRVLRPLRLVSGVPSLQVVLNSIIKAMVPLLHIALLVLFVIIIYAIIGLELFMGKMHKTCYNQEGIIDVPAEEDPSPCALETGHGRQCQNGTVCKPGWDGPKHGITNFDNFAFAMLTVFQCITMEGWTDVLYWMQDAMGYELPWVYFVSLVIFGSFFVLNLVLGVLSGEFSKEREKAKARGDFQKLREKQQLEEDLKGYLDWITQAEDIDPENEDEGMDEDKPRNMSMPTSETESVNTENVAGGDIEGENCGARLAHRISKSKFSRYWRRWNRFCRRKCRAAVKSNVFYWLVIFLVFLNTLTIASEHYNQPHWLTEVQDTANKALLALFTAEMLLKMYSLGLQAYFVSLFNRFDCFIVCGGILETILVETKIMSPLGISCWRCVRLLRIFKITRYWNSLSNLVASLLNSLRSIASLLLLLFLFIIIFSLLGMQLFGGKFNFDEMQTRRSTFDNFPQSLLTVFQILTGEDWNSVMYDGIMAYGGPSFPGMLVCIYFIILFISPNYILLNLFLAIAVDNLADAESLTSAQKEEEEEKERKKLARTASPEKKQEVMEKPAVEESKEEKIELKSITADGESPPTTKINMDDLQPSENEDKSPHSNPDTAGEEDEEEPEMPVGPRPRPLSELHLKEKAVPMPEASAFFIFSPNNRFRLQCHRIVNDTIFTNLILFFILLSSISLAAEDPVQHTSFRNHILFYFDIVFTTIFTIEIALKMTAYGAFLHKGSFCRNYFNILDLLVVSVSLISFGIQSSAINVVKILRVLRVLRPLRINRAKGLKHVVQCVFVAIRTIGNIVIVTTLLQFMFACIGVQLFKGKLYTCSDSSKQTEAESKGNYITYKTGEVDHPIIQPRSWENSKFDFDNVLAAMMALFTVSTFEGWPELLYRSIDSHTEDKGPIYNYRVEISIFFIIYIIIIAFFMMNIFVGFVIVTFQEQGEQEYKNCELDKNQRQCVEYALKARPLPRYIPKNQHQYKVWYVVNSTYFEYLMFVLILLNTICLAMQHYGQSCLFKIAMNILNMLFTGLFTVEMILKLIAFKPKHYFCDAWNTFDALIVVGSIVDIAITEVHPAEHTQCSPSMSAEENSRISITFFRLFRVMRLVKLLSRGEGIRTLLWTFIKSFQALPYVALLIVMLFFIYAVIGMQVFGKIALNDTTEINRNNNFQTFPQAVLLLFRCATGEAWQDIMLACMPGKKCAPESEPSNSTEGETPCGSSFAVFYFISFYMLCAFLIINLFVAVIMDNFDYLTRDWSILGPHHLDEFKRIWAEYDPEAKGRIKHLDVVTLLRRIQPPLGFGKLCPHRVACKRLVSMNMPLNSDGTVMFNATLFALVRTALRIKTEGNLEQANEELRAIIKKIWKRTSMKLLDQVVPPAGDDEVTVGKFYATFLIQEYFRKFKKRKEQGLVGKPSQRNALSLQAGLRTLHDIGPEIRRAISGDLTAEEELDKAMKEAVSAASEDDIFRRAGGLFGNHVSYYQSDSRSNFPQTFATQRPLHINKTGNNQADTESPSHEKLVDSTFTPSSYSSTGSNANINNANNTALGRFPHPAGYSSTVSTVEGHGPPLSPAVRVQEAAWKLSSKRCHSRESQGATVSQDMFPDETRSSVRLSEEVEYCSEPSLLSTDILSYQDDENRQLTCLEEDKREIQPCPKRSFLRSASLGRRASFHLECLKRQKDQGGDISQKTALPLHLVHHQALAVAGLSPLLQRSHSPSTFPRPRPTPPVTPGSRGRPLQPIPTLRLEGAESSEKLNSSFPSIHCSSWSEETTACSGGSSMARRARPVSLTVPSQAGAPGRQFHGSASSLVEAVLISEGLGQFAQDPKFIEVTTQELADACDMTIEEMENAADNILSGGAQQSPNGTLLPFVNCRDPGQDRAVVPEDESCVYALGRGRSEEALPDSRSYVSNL

Melanocortin receptor 3 = Melanocortin receptor 3 (Homo sapiens, UniProt P41968)
Sequence of Melanocortin receptor 3 (P41968 whole entry): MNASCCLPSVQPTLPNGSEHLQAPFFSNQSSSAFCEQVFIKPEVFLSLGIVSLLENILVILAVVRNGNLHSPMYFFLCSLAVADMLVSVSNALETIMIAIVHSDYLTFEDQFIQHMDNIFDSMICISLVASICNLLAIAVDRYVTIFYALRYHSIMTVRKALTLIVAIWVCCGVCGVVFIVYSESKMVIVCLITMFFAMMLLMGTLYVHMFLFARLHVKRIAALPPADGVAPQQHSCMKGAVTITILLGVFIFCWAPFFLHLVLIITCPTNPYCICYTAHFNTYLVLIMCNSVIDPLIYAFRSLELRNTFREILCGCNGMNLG
Note: assay procedure not described here.

SMILES	AC50 [1] [µM]	AC50 (Cannabinoid receptor 1) [µM]	AC50 [2] [µM]	AC50 (Endothelin-1 receptor) [µM]	AC50 [3] [µM]	AC50 (Estrogen receptor) [µM]	AC50 (D(3) dopamine receptor) [µM]	AC50 [4] [µM]	AC50 [5] [µM]	AC50 (Motilin receptor) [µM]	AC50 (Progesterone receptor) [µM]	AC50 [6] [µM]	AC50 (Melanocortin receptor 3) [µM]
CCCCCCCCCCCC[N+](C)(C)CCOc1ccccc1 [DOMIPHEN]	> 30	> 30	1.4	> 30	> 30	5	2.1	> 30	15	3	> 30	> 30	–
O=C1CN=C(c2ccccc2)c2cc(Cl)ccc2N1CC(F)(F)F [HALAZEPAM]	> 30	> 30	> 30	> 30	> 30	> 30	> 30	> 30	–	> 30	> 30	–	> 30
CCCCCN(C)CCC(O)(P(=O)(O)O)P(=O)(O)O [IBANDRONIC ACID]	> 30	> 30	> 30	> 30	> 30	> 30	> 30	> 30	> 30	> 30	> 30	> 30	> 30
C1=Cc2cccc(OCC3CNCCO3)c2C1 (configuration not stated) [INDELOXAZINE]	25	> 30	0.7	> 30	> 30	> 30	> 30	> 30	> 30	> 30	> 30	> 30	> 30
COc1ccc(C(=O)NCc2ccc(OCCN(C)C)cc2)cc1OC [ITOPRIDE]	> 30	> 30	> 30	> 30	> 30	> 30	20	> 30	> 30	> 30	> 30	> 30	> 30
Cc1cc(-c2ccccc2)nnc1NCCN1CCOCC1 [MINAPRINE]	> 30	> 30	> 10	> 30	> 30	> 30	> 10	> 10	> 10	> 10	–	> 10	> 30
CCCCCCC(C)(C)c1cc(O)c2c(c1)OC(C)(C)C1CCC(=O)CC21 (configuration not stated) [NABILONE]	> 30	0.168	> 30	> 30	> 30	> 30	> 30	> 30	–	> 30	> 30	–	> 30
COc1ccc(C(=O)N2CCN(c3ccc4c(c3)CCC(=O)N4)CC2)cc1OC [VESNARINONE]	> 30	> 30	> 30	> 30	> 30	> 30	> 30	> 30	> 30	> 30	12	–	> 30
